Measured values as given in US7998965B2, “Glutamate aggrecanase inhibitors” (Wyeth LLC, priority 2005, dated 2011).

Columns and labels:
MMP-12 = MMP-12 (Homo sapiens, UniProt P39900); test: MMP-12 of Table 3; assay type: biochemical; settings: unit inferred
[1] = target: T1, purified recombinant human Aggrecanase-1 (rAgg1) (Homo sapiens, UniProt O75173); test: In vitro fluorescence screen for Aggrecanase-1 inhibitors; assay type: biochemical; settings: Table 3; for IC50: read-out: Agg1 IC50; for Ki: read-out: Ki Agg1
T1 sequence (O75173 213-837): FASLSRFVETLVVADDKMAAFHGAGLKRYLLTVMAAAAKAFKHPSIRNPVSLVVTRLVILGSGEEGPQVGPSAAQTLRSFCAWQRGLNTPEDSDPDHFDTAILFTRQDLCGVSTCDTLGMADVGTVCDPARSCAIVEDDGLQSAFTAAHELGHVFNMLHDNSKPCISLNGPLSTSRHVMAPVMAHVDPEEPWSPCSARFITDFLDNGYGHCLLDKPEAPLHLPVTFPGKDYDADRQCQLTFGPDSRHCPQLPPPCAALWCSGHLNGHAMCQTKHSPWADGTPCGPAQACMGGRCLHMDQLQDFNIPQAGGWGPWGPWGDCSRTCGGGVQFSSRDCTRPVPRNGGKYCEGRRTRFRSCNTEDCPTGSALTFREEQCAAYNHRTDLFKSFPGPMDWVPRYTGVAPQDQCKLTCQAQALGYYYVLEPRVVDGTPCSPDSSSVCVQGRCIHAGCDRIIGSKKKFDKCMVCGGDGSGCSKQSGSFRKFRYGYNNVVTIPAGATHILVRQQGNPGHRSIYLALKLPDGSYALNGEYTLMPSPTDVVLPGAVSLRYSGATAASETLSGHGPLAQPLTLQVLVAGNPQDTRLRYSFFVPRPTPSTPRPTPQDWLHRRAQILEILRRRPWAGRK

recombinant human MMP-2 = target: T2, recombinant human MMP-2 (Homo sapiens, UniProt P08253); test: In vitro fluorescence assay of MMP-2 activity
T2 sequence (P08253 110-660): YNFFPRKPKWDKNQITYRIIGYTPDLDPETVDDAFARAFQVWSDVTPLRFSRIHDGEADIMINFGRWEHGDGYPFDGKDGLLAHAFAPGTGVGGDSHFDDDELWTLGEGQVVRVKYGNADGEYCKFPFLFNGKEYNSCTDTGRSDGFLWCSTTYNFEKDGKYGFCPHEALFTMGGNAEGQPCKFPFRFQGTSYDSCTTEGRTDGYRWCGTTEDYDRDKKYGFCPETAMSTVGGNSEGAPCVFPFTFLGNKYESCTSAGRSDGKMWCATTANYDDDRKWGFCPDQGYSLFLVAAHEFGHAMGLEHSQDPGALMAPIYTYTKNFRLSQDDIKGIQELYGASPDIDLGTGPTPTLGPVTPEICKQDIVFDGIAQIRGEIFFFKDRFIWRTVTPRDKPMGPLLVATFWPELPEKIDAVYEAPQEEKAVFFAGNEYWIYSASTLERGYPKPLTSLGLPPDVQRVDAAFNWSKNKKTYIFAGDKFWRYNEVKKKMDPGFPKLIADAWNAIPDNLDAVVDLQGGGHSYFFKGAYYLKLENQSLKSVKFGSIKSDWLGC
Description: A continuous assay was used in which the substrate is a synthetic peptide containing a fluorescent group (7-methoxycoumarin; Mca), which is quenched by energy transfer to a 2,4-dinitrophenyl group. […] The source of enzyme in the assay was the recombinant human MMP-2 (66 kDa; Oncogene Research Products (catalog number PF023 from Calbiochem)). The substrate used was the peptide Mca-PQGL-(3-[2,4-dinitrophenyl]-L-2,3-diaminopropionyl)-AR-OH. The assay buffer consisted of 50 mM Hepes (pH 7.4), 100 mM NaCl, 5 mM CaCl2, and 0.005% Brij-35. […] The plates were then incubated at 30° C. for 15 minutes. The enzymatic reactions were initiated by adding the substrate to a final concentration of 20 μM, and mixing 10 times with a pipette. The final DMSO concentration in the assay was 6.0%.
Plots of the inhibitor concentration vs. the percent inhibition were fit to the following equation: y=(a−d)/[^1+(x/c)^b]+d, a general sigmoidal curve with Hill slope, a to d. x is the inhibitor concentration under test. y is the percent inhibition. a is the limiting response as x approaches zero. As x increases without bound, y tends toward its limit d. c is the inflection point (IC50) for the curve. That is, y is halfway between the lower and upper asymptotes when x=c. b is the slope factor or Hill coefficient.

MMP-8 = MMP-8 (Homo sapiens, UniProt P22894); test: MMP-8 of Table 3; assay type: biochemical; settings: unit inferred
[2] = target: T3, purified recombinant human Aggrecanase-2 (Ag2t-Phe628-Strep) (Homo sapiens, UniProt Q9UNA0); test: In vitro fluorescence screen for Aggrecanase-2 inhibitors; assay type: biochemical; settings: Table 3; for IC50: read-out: Agg 2 IC50; for Ki: read-out: Ki Agg2
T3 construct: the form used is denoted as Ag2t-Phe628-Strep (MW=41,737)
T3 sequence (Q9UNA0 262-628): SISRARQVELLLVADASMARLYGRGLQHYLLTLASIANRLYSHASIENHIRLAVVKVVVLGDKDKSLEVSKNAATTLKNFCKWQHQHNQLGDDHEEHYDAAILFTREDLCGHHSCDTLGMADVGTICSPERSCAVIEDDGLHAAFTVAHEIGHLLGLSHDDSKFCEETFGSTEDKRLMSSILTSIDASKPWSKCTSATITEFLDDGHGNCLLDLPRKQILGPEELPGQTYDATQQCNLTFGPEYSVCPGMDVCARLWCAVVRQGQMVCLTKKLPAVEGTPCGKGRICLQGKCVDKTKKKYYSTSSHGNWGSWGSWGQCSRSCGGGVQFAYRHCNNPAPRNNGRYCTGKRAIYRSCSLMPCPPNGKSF

Chain of MMP-8 (P22894 101-467, species assumed): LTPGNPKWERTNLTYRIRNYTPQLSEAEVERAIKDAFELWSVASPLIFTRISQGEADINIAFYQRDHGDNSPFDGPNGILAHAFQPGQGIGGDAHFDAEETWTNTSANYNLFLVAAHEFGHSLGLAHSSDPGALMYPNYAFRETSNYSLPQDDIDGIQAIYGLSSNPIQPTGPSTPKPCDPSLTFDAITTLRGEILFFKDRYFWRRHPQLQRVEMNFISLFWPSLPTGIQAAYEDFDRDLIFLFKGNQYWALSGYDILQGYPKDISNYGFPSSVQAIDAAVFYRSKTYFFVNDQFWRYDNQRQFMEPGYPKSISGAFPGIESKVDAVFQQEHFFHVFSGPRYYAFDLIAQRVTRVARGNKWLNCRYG
Chain of MMP-12 (P39900 106-470): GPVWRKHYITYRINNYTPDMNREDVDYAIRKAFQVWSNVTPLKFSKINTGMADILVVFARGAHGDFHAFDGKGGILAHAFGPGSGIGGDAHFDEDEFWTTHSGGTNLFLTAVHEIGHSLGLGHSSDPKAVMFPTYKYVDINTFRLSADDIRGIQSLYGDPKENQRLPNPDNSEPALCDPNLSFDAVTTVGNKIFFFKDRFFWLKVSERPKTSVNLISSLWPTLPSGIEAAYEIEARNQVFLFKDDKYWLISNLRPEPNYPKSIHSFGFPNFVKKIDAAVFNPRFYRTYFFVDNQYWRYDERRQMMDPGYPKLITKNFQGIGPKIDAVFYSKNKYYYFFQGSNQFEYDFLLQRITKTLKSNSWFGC

An IC50 (MMP-12) of 2860 nM, an IC50 [1] of under 30 nM and a Ki [1] of 4.7 nM were found for CC(C)(Cc1ccc(F)cc1)NC(=O)[C@H](CCC(=O)O)NC(=O)c1ccc(-c2ccc(F)cc2)s1 [Example 8ZZZZZZZZZ, N-[2-(4-fluorophenyl)-1,1-dimethylethyl]-N^2-{[5-(4-fluorophenyl)-2-thienyl]carbonyl}-L-α-glutamine] in this work. The IC50 (recombinant human MMP-2) was 8280 nM, the IC50 (MMP-8) was 2440 nM and the IC50 [2] was 30 to 90 nM. For the same compound, the Ki [2] was 123 nM.

An IC50 (MMP-12) of 1070 nM, an IC50 [1] of under 30 nM and a Ki [1] of 23.2 nM were found for CC(C)(Cc1ccccc1)NC(=O)[C@H](CCC(=O)O)NC(=O)c1ccc(-c2cccc(F)c2)cc1 [N-(1,1-dimethyl-2-phenylethyl)-N^2-[(3′-fluorobiphenyl-4-yl)carbonyl]-L-α-glutamine] in this work. For the same compound, the IC50 (recombinant human MMP-2) was 6400 nM, the IC50 (MMP-8) was 2500 nM and the IC50 [2] was 80 nM. For the same compound, the Ki [2] was 180 nM.

An IC50 (MMP-12) of 628 nM, an IC50 [1] of under 30 nM and a Ki [1] of 27.2 nM were found for CC(C)(Cc1ccccc1)NC(=O)[C@H](CCC(=O)O)NC(=O)c1ccc(-c2ccc(F)cc2)cc1 [N-(1,1-dimethyl-2-phenylethyl)-N^2-[(4′-fluorobiphenyl-4-yl)carbonyl]-L-α-glutamine] in this work. For the same compound, the IC50 (recombinant human MMP-2) was 4000 nM, the IC50 (MMP-8) was 763 nM and the IC50 [2] was 90 nM. For the same compound, the Ki [2] was 218 nM.

An IC50 (MMP-12) of 2890 nM, an IC50 [1] of under 30 nM and a Ki [1] of 11.5 nM were found for CC(C)(Cc1ccccc1)NC(=O)[C@H](CCC(=O)O)NC(=O)c1ccc(-c2ccc(F)cc2)s1 [N-(1,1-dimethyl-2-phenylethyl)-N^2-{[5-(4-fluorophenyl)-2-thienyl]carbonyl}-L-α-glutamine] in this work. For the same compound, the IC50 (recombinant human MMP-2) was 7240 nM, the IC50 (MMP-8) was 2550 nM and the IC50 [2] was 30 to 300 nM. The Ki [2] was 126 nM.

An IC50 (MMP-12) of 3710 nM, an IC50 [1] of under 30 nM and a Ki [1] of 39.6 nM were found for CC(C)(Cc1ccc(Cl)cc1)NC(=O)[C@H](CCC(=O)O)NC(=O)c1ccc(-c2cccc(Cl)c2)cc1 [N^2-[(3′-chlorobiphenyl-4-yl)carbonyl]-N-[2-(4-chlorophenyl)-1,1-dimethylethyl]-L-α-glutamine] in this work. For the same compound, the IC50 (recombinant human MMP-2) was 25500 nM, the IC50 (MMP-8) was 13200 nM and the IC50 [2] was 250 nM. The Ki [2] was 349 nM.

An IC50 (MMP-12) of 2240 nM, an IC50 [1] of under 30 nM and a Ki [1] of 28.9 nM were found for CC(C)(Cc1ccccc1)NC(=O)[C@H](CCC(=O)O)NC(=O)c1ccc(-c2ccc(Cl)cc2)s1 [N^2-{[5-(4-chlorophenyl)-2-thienyl]carbonyl}-N-(1,1-dimethyl-2-phenylethyl)-L-α-glutamine] in this work. For the same compound, the IC50 (recombinant human MMP-2) was 6970 nM, the IC50 (MMP-8) was 2230 nM and the IC50 [2] was 100 to 300 nM. It also gave a Ki [2] of 204 nM.

An IC50 (MMP-12) of over 10000 nM, an IC50 [1] of under 30 nM and a Ki [1] of 11.7 nM were found for CC(C)(Cc1ccc(F)cc1)NC(=O)[C@H](CCC(=O)O)NC(=O)c1ccc(-c2ccc(Cl)cc2)s1 [N^2-{[5-(4-chlorophenyl)-2-thienyl]carbonyl}-N-[2-(4-fluorophenyl)-1,1-dimethylethyl]-L-α-glutamine] in this work. It also gave an IC50 (recombinant human MMP-2) of 8000 nM, an IC50 (MMP-8) of 3400 nM and an IC50 [2] of over 100 nM. For the same compound, the Ki [2] was 405 nM.

An IC50 (MMP-12) of over 10000 nM, an IC50 [1] of under 30 nM and a Ki [1] of 42 nM were found for CC(C)(Cc1ccc(F)cc1)NC(=O)[C@H](CCC(=O)O)NC(=O)c1ccc(-c2ccc(Cl)s2)nc1 [N^2-{[6-(5-chloro-2-thienyl)pyridin-3-yl]carbonyl}-N-[2-(4-fluorophenyl)-1,1-dimethylethyl]-L-α-glutamine] in this work. The IC50 (recombinant human MMP-2) was 1300 nM, the IC50 (MMP-8) was over 5000 nM and the IC50 [2] was over 300 nM. For the same compound, the Ki [2] was 723 nM.
